Results: ChEMBL document CHEMBL5338818, “Discovery of the First Potent, Selective, and In Vivo Efficacious Polo-like Kinase 4 Proteolysis Targeting Chimera Degrader for the Treatment of TRIM37-Amplified Breast Cancer” (J Med Chem, 2023)
Active and inactive are the calls of the source. The rule behind the calls is not given here.

Legend:
[1] = Stability in human plasma assessed as compound remaining at 100 uM after 120 mins by LC-MS/MS analysis (reference value: 100%); format: ADME, cell-free; conditions: read-out: Stability
MCF7 [2] = assay: Antiproliferative activity against human MCF7 cells measured at 4 to 8 days interval by cell counting analysis; format: functional, cell-based; conditions: time 4-8 day
MCF7 [3] = assay: Induction of cell cycle arrest at G2 phase in human MCF7 cells at 0.3 to 3 uM incubated for 36 hrs by Annexin V-FITC//propidium iodide staining based flow cytometry analysis; format: functional
[4] = Metabolic stability in human liver microsomes assessed as compound remaining at 100 uM incubated for 60 mins by LC-MS/MS analysis; format: ADME, Microsome; conditions: read-out: Stability
[5] = Metabolic stability in mouse liver microsomes assessed as intrinsic clearance at 100 uM incubated for 60 mins in presence of NADPH by LC-MS/MS analysis; format: ADME, Microsome; conditions: read-out: CLH
MCF7 [6] = assay: Inhibition of human MCF7 cells migration incubated for 48 hrs by inverted microscopic analysis; format: functional, cell-based; conditions: dose 0.1-1 µM
[7] = Toxicity in nu/nu mouse xenografted with human MCF7 cells assessed as effect on spleen at 20 mg/kg, ip administered once every other day for 21 days by HE staining based analysis; format: organism-based; conditions: in vivo, 504 h, time 21 day
[8] = Toxicity in nu/nu mouse xenografted with human MCF7 cells assessed as effect on heart at 20 mg/kg, ip administered once every other day for 21 days by HE staining based analysis; format: organism-based; conditions: in vivo, 504 h, time 21 day
Mus musculus = assay: In vivo induction of PLK degradation in human MCF7 cells xenografted in nu/nu mouse at 20 mg/kg, ip administered once every other day for 21 days by western blotting analysis; format: functional, organism-based; conditions: time 21.0 day
MCF7 [9] = assay: Inhibition of colony formation in human MCF7 cells incubated for 14 days by crystal violet staining based assay; format: functional, cell-based; conditions: dose 0.05-1 µM, time 14.0 day
[10] = Metabolic stability in mouse liver microsomes assessed as half life at 100 uM incubated for 60 mins in presence of NADPH by LC-MS/MS analysis; format: ADME, Microsome
MCF7 [11] = assay: Antitumor activity against human MCF7 cells xenografted in nu/nu mouse assessed as tumor growth inhibition at 20 mg/kg, ip administered once every other day for 21 days; format: functional; conditions: MCF7, 504 h, time 21 day, read-out: TGI
[12] = Metabolic stability in mouse liver microsomes assessed as compound remaining at 100 uM incubated for 60 mins by LC-MS/MS analysis; format: ADME, Microsome; conditions: read-out: Stability
[13] = Metabolic stability in human liver microsomes assessed as half life at 100 uM incubated for 60 mins in presence of NADPH by LC-MS/MS analysis; format: ADME, Microsome
[14] = Metabolic stability in human liver microsomes assessed as intrinsic clearance at 100 uM incubated for 60 mins in presence of NADPH by LC-MS/MS analysis; format: ADME, Microsome; conditions: read-out: CLH
[15] = Stability in human plasma assessed as half life at 100 uM after 120 mins by LC-MS/MS analysis; format: ADME, cell-free
[16] = Half life in ICR mouse at 20 mg/kg, ip measured upto 24 hrs by LC-M/MS analysis; format: ADME, organism-based; conditions: in vivo
[17] = Apparent permeability across basolateral to apical side in human Caco-2 cells at 2 uM incubated for 2 hrs by LC-MS/MS analysis; format: ADME, cell-based
CYP2D6 = assay: Inhibition of CYP2D6 in human liver microsomes at 10 uM using quinidine as substrate preincubated for 10 mins followed by NADPH regenerating system addition and measured after 15 mins by LC-MS/MS analysis relative to control; format: ADME, Microsome; conditions: time 25 min
[18] = Stability in human plasma assessed as compound remaining at 100 uM after 10 mins by LC-MS/MS analysis (reference value: 100%); format: ADME, cell-free; conditions: read-out: Stability
[19] = biological target: Protein cereblon/Serine/threonine-protein kinase PLK4 (Homo sapiens, UniProt O00444+Q96SW2); assay: Protac activity at CRBN/PLK4 in human MCF7 cells at 1 uM in presence of MG132 by Western blot analysis; format: cell-based
[20] = Apparent permeability across apical to basolateral side in human Caco-2 cells at 2 uM incubated for 2 hrs by LC-MS/MS analysis; format: ADME, cell-based
[21] = biological target: T1, Serine/threonine-protein kinase PLK4 (Homo sapiens) (UniProt O00444); assay: Inhibition of PLK4 in human MCF7 cells assessed as reduction in FBXW5 inactivation by Western blot analysis; format: cell-based; conditions: dose 1-1000 nM
T1 sequence (whole entry): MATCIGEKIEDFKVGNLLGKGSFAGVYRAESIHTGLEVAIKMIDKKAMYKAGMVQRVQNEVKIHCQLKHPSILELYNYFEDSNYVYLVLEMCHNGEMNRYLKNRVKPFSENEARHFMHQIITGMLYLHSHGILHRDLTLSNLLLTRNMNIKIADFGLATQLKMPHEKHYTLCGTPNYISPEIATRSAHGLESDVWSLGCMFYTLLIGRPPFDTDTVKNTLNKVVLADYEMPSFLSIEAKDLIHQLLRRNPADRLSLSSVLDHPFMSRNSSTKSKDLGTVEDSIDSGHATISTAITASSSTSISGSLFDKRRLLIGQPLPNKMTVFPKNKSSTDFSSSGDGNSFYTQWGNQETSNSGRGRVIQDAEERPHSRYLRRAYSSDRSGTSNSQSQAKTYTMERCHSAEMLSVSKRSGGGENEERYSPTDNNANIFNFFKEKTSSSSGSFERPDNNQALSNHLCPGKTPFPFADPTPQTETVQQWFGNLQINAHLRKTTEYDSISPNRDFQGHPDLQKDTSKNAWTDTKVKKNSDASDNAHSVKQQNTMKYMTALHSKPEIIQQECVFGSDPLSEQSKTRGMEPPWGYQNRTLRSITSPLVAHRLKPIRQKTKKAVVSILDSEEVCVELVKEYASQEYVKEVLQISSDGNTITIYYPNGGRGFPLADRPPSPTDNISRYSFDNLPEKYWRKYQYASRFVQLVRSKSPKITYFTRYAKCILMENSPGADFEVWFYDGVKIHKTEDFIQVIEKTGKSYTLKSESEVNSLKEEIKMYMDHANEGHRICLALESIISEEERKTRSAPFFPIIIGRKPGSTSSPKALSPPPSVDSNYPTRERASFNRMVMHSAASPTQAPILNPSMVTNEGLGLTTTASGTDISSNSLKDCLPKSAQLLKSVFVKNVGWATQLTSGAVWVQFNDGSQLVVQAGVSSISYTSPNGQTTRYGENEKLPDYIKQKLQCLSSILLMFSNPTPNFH

[22] = Stability in human plasma assessed as compound remaining at 100 uM after 60 mins by LC-MS/MS analysis (reference value: 100%); format: ADME, cell-free; conditions: read-out: Stability
[23] = Toxicity in nu/nu mouse xenografted with human MCF7 cells assessed as change in body weight at 20 mg/kg, ip administered once every other day for 21 days; format: organism-based; conditions: in vivo, 504 h, time 21 day
[24] = Metabolic stability in rat liver microsomes assessed as compound remaining at 100 uM incubated for 60 mins by LC-MS/MS analysis; format: ADME, Microsome; conditions: read-out: Stability
[25] = Half life in ICR mouse at 2 mg/kg, iv measured upto 24 hrs by LC-M/MS analysis; format: ADME, organism-based; conditions: in vivo

Sequence of Protein cereblon/Serine/threonine-protein kinase PLK4 (Q96SW2 whole entry, looked up, one chain of several): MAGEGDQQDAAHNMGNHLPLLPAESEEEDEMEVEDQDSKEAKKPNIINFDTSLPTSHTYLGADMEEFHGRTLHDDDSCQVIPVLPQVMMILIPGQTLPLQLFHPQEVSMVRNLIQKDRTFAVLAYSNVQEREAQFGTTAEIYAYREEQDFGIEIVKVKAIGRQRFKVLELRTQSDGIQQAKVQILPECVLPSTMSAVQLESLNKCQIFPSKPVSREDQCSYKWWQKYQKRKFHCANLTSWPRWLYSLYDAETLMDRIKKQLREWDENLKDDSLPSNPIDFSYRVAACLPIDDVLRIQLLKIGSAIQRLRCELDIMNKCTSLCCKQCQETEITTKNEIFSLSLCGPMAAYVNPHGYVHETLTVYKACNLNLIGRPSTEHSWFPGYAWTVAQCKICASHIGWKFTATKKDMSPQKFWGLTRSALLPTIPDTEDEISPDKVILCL

**Q.** For `Cc1cc(Nc2nc(NCc3ccc(F)cc3F)nc3c2cnn3C2CCN(C(=O)C3CCN(c4ccc5c(c4)C(=O)N(C4CCC(=O)NC4=O)C5=O)CC3)CC2)n[nH]1` (configuration not stated), which remaining at 2 h, 100 µM [1] is on record?
**A.** 69.9%

**Q.** And the Activity (MCF7 [2])?
**A.** Active

**Q.** And the Activity (MCF7 [3])?
**A.** Dose-Dependent Effect

**Q.** And the remaining at 1 h, 100 µM [4]?
**A.** 97.3%

**Q.** What about the microsomal CLint at 100 µM [5] of the same compound?
**A.** 17.1 µL/min/mg

**Q.** And the inhibition (MCF7 [6])?
**A.** Dose-Dependent Effect

**Q.** And the Activity [7]?
**A.** Non-Toxic

**Q.** And the Activity [8]?
**A.** Non-Toxic

**Q.** And the inhibition (Mus musculus)?
**A.** Active

**Q.** And the inhibition (MCF7 [9])?
**A.** Dose-Dependent Effect

**Q.** What about the half-life at 100 µM [10] of the same compound?
**A.** 1.35 h

**Q.** And the inhibition in vivo at 20 mg/kg (MCF7 [11])?
**A.** 73.7%

**Q.** What about the remaining at 1 h, 100 µM [12] of the same compound?
**A.** 80.7%

**Q.** And the half-life at 100 µM [13]?
**A.** 1.06 h

**Q.** And the microsomal CLint at 100 µM [14]?
**A.** 21.7 µL/min/mg

**Q.** What about the half-life at 100 µM [15] of the same compound?
**A.** > 2 h

**Q.** And the half-life [16]?
**A.** 4.66 h

**Q.** And the Papp B→A at 2 h, 2 µM [17]?
**A.** 0.97 ×10⁻⁶ cm/s

**Q.** And the inhibition at 0.25 h, 10 µM (CYP2D6)?
**A.** 5.6%

**Q.** What about the remaining at 10 min, 100 µM [18] of the same compound?
**A.** 93.9%

**Q.** What about the Activity [19] of the same compound?
**A.** Active

**Q.** What about the Papp A→B at 2 h, 2 µM [20] of the same compound?
**A.** 0.48 ×10⁻⁶ cm/s

**Q.** And the inhibition [21]?
**A.** Dose-Dependent Effect

**Q.** What about the remaining at 1 h, 100 µM [22] of the same compound?
**A.** 83.6%

**Q.** What about the Activity [23] of the same compound?
**A.** Non-Toxic

**Q.** And the remaining at 1 h, 100 µM [24]?
**A.** 93.1%

**Q.** And the half-life [25]?
**A.** 5.34 h
